The NIST ThermoML archive (doi:10.1016/j.fluid.2015.05.009)

What was measured:
[1] = for surface tension liquid-gas: Pendant drop shape; for viscosity / mass density: 101.33 kPa, Liquid; for viscosity: Concentric cylinders viscometry; for mass density: Vibrating tube method
[2] = refractive index (Na D-line) (dimensionless); conditions: 101.33 kPa, Liquid, Standard Abbe refractometry

CCCCCCCC[P+](CCCCCCCC)(CCCCCCCC)CCCCCCCC.[Br-] [tetraoctylphosphonium bromide]
Conditions | mass density, [1] [kg/m3] | refractive index, [2] | surface tension liquid-gas, [1] [mN/m] | viscosity, [1] [mPa·s]
318.1 K | – | – | 27.4 | –
318.15 K | 945 | 1.48262 | – | 376.5
323.1 K | – | – | 27.1 | –
323.15 K | 942 | 1.48092 | – | 289.9
328.15 K | 938.9 | 1.47916 | – | 226.4
333.1 K | – | – | 26.6 | –
333.15 K | 935.9 | 1.47699 | – | 178.7
338.15 K | 932.9 | 1.47523 | – | 142.1
343.1 K | – | – | 26 | –
343.15 K | 929.8 | 1.47354 | – | 114.4
348.15 K | 926.8 | 1.47195 | – | 93.4
353.15 K | 923.7 | 1.47035 | – | 76.8

CCCC[P+](CC)(CCCC)CCCC.CCOP(=O)([O-])OCC [tributylethylphosphonium diethylphosphate]
Conditions | mass density, [1] [kg/m3] | refractive index, [2] | surface tension liquid-gas, [1] [mN/m] | viscosity, [1] [mPa·s]
283.15 K | 1021.5 | 1.47176 | – | 1018.4
288.15 K | 1018 | 1.46996 | – | 669.5
293.15 K | 1014.4 | 1.46809 | – | 466.4
293.2 K | – | – | 31.4 | –
298.15 K | 1010.9 | 1.46618 | – | 316.8
298.2 K | – | – | 30.5 | –
303.15 K | 1007.5 | 1.46474 | – | 226.7
303.2 K | – | – | 29.8 | –
308.15 K | 1004.1 | 1.46308 | – | 166
313.1 K | – | – | 29.2 | –
313.15 K | 1000.7 | 1.4611 | – | 124.7
318.15 K | 997.6 | 1.45923 | – | 94.6
323.1 K | – | – | 28.5 | –
323.15 K | 994.3 | 1.45738 | – | 73.4
328.15 K | 990.9 | 1.45563 | – | 57.9
333.1 K | – | – | 27.5 | –
333.15 K | 987.6 | 1.45385 | – | 46.4
338.15 K | 984.3 | 1.45212 | – | 37.5
343.1 K | – | – | 31.4 | –
343.15 K | 980.9 | 1.45045 | – | 30.8
348.15 K | 977.6 | 1.4488 | – | 25.6
353.15 K | 974.3 | 1.44718 | – | 21.6

CCCC[P+](C)(CCCC)CCCC.COS(=O)(=O)[O-] [tributylmethylphosphonium methyl sulfate]
Conditions | mass density, [1] [kg/m3] | refractive index, [2] | surface tension liquid-gas, [1] [mN/m] | viscosity, [1] [mPa·s]
283.15 K | 1076.5 | 1.48038 | – | 6214.1
288.15 K | 1073.4 | 1.47891 | – | 3840.1
293.15 K | 1070.3 | 1.47742 | – | 2476.4
293.2 K | – | – | 35.5 | –
298.15 K | 1067.2 | 1.47632 | – | 1629.2
298.2 K | – | – | 34.7 | –
303.15 K | 1064.1 | 1.47427 | – | 1109.1
303.2 K | – | – | 34.1 | –
308.15 K | 1061 | 1.47232 | – | 774.5
313.1 K | – | – | 33.5 | –
313.15 K | 1057.9 | 1.47072 | – | 555
318.15 K | 1054.8 | 1.46912 | – | 403.6
323.1 K | – | – | 32.9 | –
323.15 K | 1051.8 | 1.46758 | – | 300
328.15 K | 1048.9 | 1.46603 | – | 227
333.1 K | – | – | 32.2 | –
333.15 K | 1045.9 | 1.46457 | – | 174.7
338.15 K | 1043 | 1.46318 | – | 136.3
343.15 K | 1040.1 | 1.46185 | – | 107.9
348.15 K | 1037.3 | 1.46067 | – | 86.4
353.15 K | 1034.4 | 1.45965 | – | 70

CC(C)C[P+](C)(CC(C)C)CC(C)C.Cc1ccc(S(=O)(=O)[O-])cc1 [triisobutylmethylphosphonium p-toluenesulfonate]
Conditions | mass density, [1] [kg/m3] | refractive index, [2] | surface tension liquid-gas, [1] [mN/m] | viscosity, [1] [mPa·s]
283.15 K | 1082.4 | 1.52489 | – | 21829
288.15 K | 1079.3 | 1.52338 | – | 11305
293.15 K | 1076.2 | 1.5217 | – | 6231.9
293.2 K | – | – | 38.1 | –
298.15 K | 1073.2 | 1.5203 | – | 3612.4
298.2 K | – | – | 37.3 | –
303.15 K | 1070.1 | 1.51828 | – | 2199.9
303.2 K | – | – | 36.6 | –
308.15 K | 1067 | 1.51635 | – | 1397.3
313.1 K | – | – | 35.5 | –
313.15 K | 1064 | 1.51433 | – | 917.9
318.15 K | 1060.9 | 1.51233 | – | 623.7
323.1 K | – | – | 35 | –
323.15 K | 1057.7 | 1.51055 | – | 436.2
328.15 K | 1054.7 | 1.50872 | – | 313.1
333.1 K | – | – | 34.3 | –
333.15 K | 1051.8 | 1.50698 | – | 230.1
338.15 K | 1048.8 | 1.50537 | – | 172.7
343.15 K | 1045.9 | 1.50391 | – | 132.1
348.15 K | 1043.1 | 1.50252 | – | 102.8
353.15 K | 1040.2 | 1.50124 | – | 81.3
